Patent US20180289678A1, “PHARMACEUTICAL COMPOSITION, PHARMACEUTICAL DOSAGE FORM, PROCESS FOR THEIR PREPARATION, METHODS FOR TREATING AND USES THEREOF” (Boehringer Ingelheim International GmbH, priority 2009, published 2018)
Where two headings read alike, the source gives them in different places.

Experiment: Study .2: multiple rising dose trial in diabetic patients, once daily for 8 days, pharmacokinetic parameters
Assay type: in vivo, human
Settings: Study .2, fasted
Method: 5. Pharmacokinetic Parameters
The pharmacokinetic parameters of pharmaceutical compositions and pharmaceutical dosage forms are assessed in healthy volunteer and patient populations. In the studies shown below, the participants fasted on the day of sampling, unless as otherwise stated (see for example study .3). The active substance in the studies below is the compound (I.9), preferably in the crystalline form (I.9X), and the dose of active ingredient is indicated in mg.
For the quantification of plasma concentrations of the active ingredient, 2.7 mL of blood was collected and transferred into an EDTA (ethylendiaminetetraacetic acid)-anticoagulant blood drawing tube. The EDTA-anticoagulated blood samples were centrifuged immediately after collection. Centrifugation lasted for about 10 minutes (at about 2,000×gf to 4,000×gf) at 4-8° C. or within 30 minutes while stored on ice. Concentrations of active substance in EDTA human plasma samples were quantitated using a HPLC/MS/MS method. The assay method comprised a solid phase supported liquid-liquid extraction of human plasma coupled with HPLC/MS/MS determination of the extracted samples. The HPLC/MS/MS assay was validated for the range of 1.11 to 1110 nM in human plasma.
Study .2: Multiple rising dose trial in a diabetic patient population of N=48, once daily administration for 8 days. Patients were administered tablets as described in Example 10 (section Examples of formulations).
AUC0-inf:area under the concentration-time curve of the analyte in plasma over the time interval from 0 extrapolated to infinity.
Cmax: maximum concentration of the analyte in plasma.
Tmax: time from dosing to maximum concentration.
AUCT,SS:area under the concentration-time curve of the analyte in plasma over the time interval from 0 to 24 h at steady-state.
Cmax,ss:maximum concentration of the analyte in plasma at steady state over a uniform dosing interval.
tmax,ss:time from dosing to maximum concentration at steady state.

[1] = 2.5 mg once daily, steady state

AUCτ,ss Max [1]: 0.677 µM·h
AUCτ,ss Mean [1]: 0.471 µM·h
AUCτ,ss Min [1]: 0.283 µM·h
tmax,ss Median [1]: 90 min
tmax,ss Min [1]: 59 min
Cmax (2.5 mg once daily, steady state, read-out: Cmax,ss Max): 96.3 nM
Cmax (2.5 mg once daily, steady state, read-out: Cmax,ss Mean): 68.5 nM
Cmax (2.5 mg once daily, steady state, read-out: Cmax,ss Min): 40.3 nM
AUC0-inf Max (2.5 mg single dose): 0.631 µM·h
AUC0-inf Min (2.5 mg single dose): 0.326 µM·h
AUC0-inf,norm Max (2.5 mg single dose): 252 nmol·h/L/mg
AUC0-inf,norm Median (2.5 mg single dose): 200 nmol·h/L/mg
AUC0-inf,norm Min (2.5 mg single dose): 130 nmol·h/L/mg
AUC0-inf,norm gMean (2.5 mg single dose): 187 nmol·h/L/mg
Cmax,norm Max (2.5 mg single dose): 32 nmol/L/mg
Cmax,norm Median (2.5 mg single dose): 25 nmol/L/mg
Cmax,norm Min (2.5 mg single dose): 17 nmol/L/mg
Cmax,norm gMean (2.5 mg single dose): 25 nmol/L/mg
tmax Max (2.5 mg single dose): 90 min
tmax Min (2.5 mg single dose): 40 min
Cmax (2.5 mg single dose, read-out: Cmax Max): 81.2 nM
Cmax (2.5 mg single dose, read-out: Cmax Mean): 62.4 nM
Cmax (2.5 mg single dose, read-out: Cmax Min): 43.3 nM
AUCτ,ss Max (10 mg once daily, steady state): 2.58 µM·h
AUCτ,ss Mean (10 mg once daily, steady state): 2.03 µM·h
AUCτ,ss Min (10 mg once daily, steady state): 1.64 µM·h
tmax,ss Min (10 mg once daily, steady state): 59 min
Cmax (10 mg once daily, steady state, read-out: Cmax,ss Max): 479 nM
Cmax (10 mg once daily, steady state, read-out: Cmax,ss Mean): 283 nM
Cmax (10 mg once daily, steady state, read-out: Cmax,ss Min): 172 nM
AUC0-inf Max (10 mg single dose): 2.4 µM·h
AUC0-inf Min (10 mg single dose): 1.6 µM·h
AUC0-inf,norm Max (10 mg single dose): 240 nmol·h/L/mg
AUC0-inf,norm Median (10 mg single dose): 183 nmol·h/L/mg
AUC0-inf,norm Min (10 mg single dose): 160 nmol·h/L/mg
AUC0-inf,norm gMean (10 mg single dose): 189 nmol·h/L/mg
Cmax,norm Max (10 mg single dose): 34 nmol/L/mg
Cmax,norm Median (10 mg single dose): 23 nmol/L/mg
Cmax,norm Min (10 mg single dose): 16 nmol/L/mg
Cmax,norm gMean (10 mg single dose): 24 nmol/L/mg
tmax Median (10 mg single dose): 90 min
tmax Min (10 mg single dose): 59 min
Cmax (10 mg single dose, read-out: Cmax Max): 344 nM
Cmax (10 mg single dose, read-out: Cmax Mean): 245 nM
Cmax (10 mg single dose, read-out: Cmax Min): 163 nM
AUCτ,ss Max (25 mg once daily, steady state): 6.65 µM·h
AUCτ,ss Mean (25 mg once daily, steady state): 4.99 µM·h
AUCτ,ss Min (25 mg once daily, steady state): 3.44 µM·h
tmax,ss Max (25 mg once daily, steady state): 252 min
tmax,ss Min (25 mg once daily, steady state): 40 min
Cmax (25 mg once daily, steady state, read-out: Cmax,ss Max): 793 nM
Cmax (25 mg once daily, steady state, read-out: Cmax,ss Mean): 630 nM
Cmax (25 mg once daily, steady state, read-out: Cmax,ss Min): 443 nM
AUC0-inf Max (25 mg single dose): 6.92 µM·h
AUC0-inf Min (25 mg single dose): 3.69 µM·h
AUC0-inf,norm Max (25 mg single dose): 277 nmol·h/L/mg
AUC0-inf,norm Median (25 mg single dose): 186 nmol·h/L/mg
AUC0-inf,norm Min (25 mg single dose): 148 nmol·h/L/mg
AUC0-inf,norm gMean (25 mg single dose): 191 nmol·h/L/mg
Cmax,norm Max (25 mg single dose): 36 nmol/L/mg
Cmax,norm Median (25 mg single dose): 23 nmol/L/mg
Cmax,norm Min (25 mg single dose): 17 nmol/L/mg
Cmax,norm gMean (25 mg single dose): 24 nmol/L/mg
tmax Max (25 mg single dose): 240 min
tmax Min (25 mg single dose): 59 min
Cmax (25 mg single dose, read-out: Cmax Max): 905 nM
Cmax (25 mg single dose, read-out: Cmax Mean): 606 nM
Structure (SMILES): OC[C@H]1O[C@@H](c2ccc(Cl)c(Cc3ccc(O[C@H]4CCOC4)cc3)c2)[C@H](O)[C@@H](O)[C@@H]1O [Compound (I.9), 1-chloro-4-(β-D-glucopyranos-1-yl)-2-[4-((S)-tetrahydrofuran-3-yloxy)-benzyl]-benzene]
